Results on 8 compounds are retold here after ChEMBL document CHEMBL4049386, “Discovery of an Inhibitor of the Proteasome Subunit Rpn11” (J Med Chem, 2017).

The subject of one data set is A549. In words: Antiproliferative activity against human A549 cells after 72 hrs by Cell Titer-Glo assay. Type of data set: functional, cell-based. To be noted: A549, 72 h. A general note: Cellular ATP, detected with luciferase, serves as a proxy for viable cell number.
For another data set, the system named is HEK-293T. In words: Antiproliferative activity against human 293T cells after 72 hrs by Cell Titer-Glo assay. Format: functional, cell-based.
The nature of data set [1]: Aqueous solubility of the compound. Particulars: buffer. Format: physicochemical.
The target in a further data set is Histone deacetylase 1 (Homo sapiens, UniProt Q13547). In words: Inhibition of full length recombinant human C-terminal His/FLAG-tagged HDAC1 expressed in baculovirus expression system using substrate 3 preincubated for 5 mins followed by substrate addition measured after 30 mins by fluorescence assay.
The next data set relates to HCT-116. In words: cells. Particulars: Homo sapiens, HCT-116, 72 h.
Data set [2] addresses T1, 26S proteasome non-ATPase regulatory subunit 14 (Homo sapiens, UniProt O00487). To be noted: 200 uM.
Description: Inhibition of 26S proteasome regulatory subunit RPN11 deubiquitinating activity in human erythrocytes at 200 uM using Ub4-pepOG protein substrate preincubated for 1 hr followed by substrate addition measured after 80 mins by fluorescence polarization assay relative to control
In data set [3] the target is T2, Protein deacetylase HDAC6 (Homo sapiens, UniProt Q9UBN7).
T2 sequence (Q9UBN7 whole entry): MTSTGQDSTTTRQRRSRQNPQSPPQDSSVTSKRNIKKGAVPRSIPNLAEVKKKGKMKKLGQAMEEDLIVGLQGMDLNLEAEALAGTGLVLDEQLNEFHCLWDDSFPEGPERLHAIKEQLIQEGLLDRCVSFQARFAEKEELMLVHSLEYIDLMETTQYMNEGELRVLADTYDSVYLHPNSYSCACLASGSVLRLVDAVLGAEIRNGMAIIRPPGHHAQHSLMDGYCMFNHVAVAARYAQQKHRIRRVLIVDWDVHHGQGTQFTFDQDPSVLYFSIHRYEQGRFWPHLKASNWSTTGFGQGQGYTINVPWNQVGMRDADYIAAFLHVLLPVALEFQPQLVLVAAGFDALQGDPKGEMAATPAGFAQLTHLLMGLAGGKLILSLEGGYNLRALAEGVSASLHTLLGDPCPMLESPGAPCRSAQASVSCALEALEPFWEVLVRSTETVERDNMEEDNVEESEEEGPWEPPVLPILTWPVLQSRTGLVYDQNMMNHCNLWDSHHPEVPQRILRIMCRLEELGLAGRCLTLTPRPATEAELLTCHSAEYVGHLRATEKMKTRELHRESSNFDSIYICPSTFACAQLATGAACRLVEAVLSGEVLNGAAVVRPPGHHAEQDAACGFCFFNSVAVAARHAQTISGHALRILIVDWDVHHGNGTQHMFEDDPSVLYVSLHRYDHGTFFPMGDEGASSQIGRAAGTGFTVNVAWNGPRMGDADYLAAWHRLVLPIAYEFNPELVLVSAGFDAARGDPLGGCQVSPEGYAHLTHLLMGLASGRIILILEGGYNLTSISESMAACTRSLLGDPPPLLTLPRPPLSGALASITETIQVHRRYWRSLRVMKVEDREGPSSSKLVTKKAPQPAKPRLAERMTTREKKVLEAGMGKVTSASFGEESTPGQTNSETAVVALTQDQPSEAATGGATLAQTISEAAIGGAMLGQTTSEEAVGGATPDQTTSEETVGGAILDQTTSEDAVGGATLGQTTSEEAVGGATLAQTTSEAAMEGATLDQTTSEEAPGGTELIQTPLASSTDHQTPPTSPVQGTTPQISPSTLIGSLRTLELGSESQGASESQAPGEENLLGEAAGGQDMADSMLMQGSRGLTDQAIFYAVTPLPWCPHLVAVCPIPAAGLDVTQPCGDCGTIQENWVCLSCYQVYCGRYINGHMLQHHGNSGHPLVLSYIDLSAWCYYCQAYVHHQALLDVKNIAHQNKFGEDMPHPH
In words: Inhibition of full length recombinant human N-terminal GST-tagged HDAC6 expressed in baculovirus expression system using substrate 3 preincubated for 5 mins followed by substrate addition measured after 30 mins by fluorescence assay.

Data set [4] has as its target 72 kDa type IV collagenase (Homo sapiens, UniProt P08253). In words: Inhibition of recombinant human MMP2 catalytic domain (Tyr110 to Asp452 residues) expressed in yeast using Mca-Pro-Leu-Gly-Leu-Dpa-Ala-Arg-NH2.AcOH as substrate preincubated for 30 mins followed by substrate addition measured every minute for 20 mins by fluorescence assay.
For data set [5], the target named is Lys-63-specific deubiquitinase BRCC36 (Homo sapiens) (UniProt P46736). In words: Inhibition of BRCC36 (unknown origin) using DiUbK63TAMRA as substrate by fluorescence assay.
In data set [6] the target is T3, Polyunsaturated fatty acid 5-lipoxygenase (Homo sapiens, UniProt P09917).
T3 sequence (P09917 whole entry): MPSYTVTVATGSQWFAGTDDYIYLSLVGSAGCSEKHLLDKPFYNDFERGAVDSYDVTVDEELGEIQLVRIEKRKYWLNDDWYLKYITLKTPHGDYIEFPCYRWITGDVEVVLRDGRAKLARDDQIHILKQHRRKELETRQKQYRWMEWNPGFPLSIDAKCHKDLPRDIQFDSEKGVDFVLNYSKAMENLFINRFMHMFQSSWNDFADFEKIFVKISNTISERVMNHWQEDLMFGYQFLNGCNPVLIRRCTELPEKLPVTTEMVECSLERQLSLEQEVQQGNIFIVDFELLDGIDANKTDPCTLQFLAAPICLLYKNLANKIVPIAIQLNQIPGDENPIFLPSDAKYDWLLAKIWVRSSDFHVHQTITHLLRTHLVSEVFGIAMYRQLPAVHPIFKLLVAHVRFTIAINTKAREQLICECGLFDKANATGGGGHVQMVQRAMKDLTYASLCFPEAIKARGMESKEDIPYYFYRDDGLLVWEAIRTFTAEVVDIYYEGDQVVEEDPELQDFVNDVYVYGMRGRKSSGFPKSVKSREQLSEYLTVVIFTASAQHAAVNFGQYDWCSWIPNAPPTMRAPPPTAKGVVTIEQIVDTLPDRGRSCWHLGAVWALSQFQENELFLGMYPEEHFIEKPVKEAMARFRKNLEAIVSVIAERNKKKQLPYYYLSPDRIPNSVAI
In words: Inhibition of recombinant human 5-LO expressed in baculovirus infected sf9 cells using arachidonic acid as substrate preincubated for 10 mins followed by substrate addition measured every minute for 20 mins by H2DCFDA dye based fluorescence assay.

The target of data set [7] is COP9 signalosome complex subunit 5 (Homo sapiens, UniProt Q92905). In words: Inhibition of CSN5 (unknown origin) using SCFskp2-Nedd8OG as substrate after 1 hr by fluorescence polarization assay. Background: Fluorescence polarisation rises when a labelled molecule tumbles more slowly, as on binding a larger partner.
For a further data set, the target named is Carbonic anhydrase 2 (Homo sapiens, UniProt P00918). In words: Inhibition of human carbonic anhydrase-2 using p-nitrophenylacetate as substrate preincubated for 10 mins followed by substrate addition.
Data set [8] concerns the target T1, 26S proteasome non-ATPase regulatory subunit 14. In words: Inhibition of 26S proteasome regulatory subunit RPN11 deubiquitinating activity in human erythrocytes using Ub4-pepOG protein substrate preincubated for 1 hr followed by substrate addition measured after 80 mins by fluorescence polarization assay.
For a further data set, the target named is T4, STAM-binding protein (Homo sapiens, UniProt O95630).
T4 sequence (O95630 whole entry): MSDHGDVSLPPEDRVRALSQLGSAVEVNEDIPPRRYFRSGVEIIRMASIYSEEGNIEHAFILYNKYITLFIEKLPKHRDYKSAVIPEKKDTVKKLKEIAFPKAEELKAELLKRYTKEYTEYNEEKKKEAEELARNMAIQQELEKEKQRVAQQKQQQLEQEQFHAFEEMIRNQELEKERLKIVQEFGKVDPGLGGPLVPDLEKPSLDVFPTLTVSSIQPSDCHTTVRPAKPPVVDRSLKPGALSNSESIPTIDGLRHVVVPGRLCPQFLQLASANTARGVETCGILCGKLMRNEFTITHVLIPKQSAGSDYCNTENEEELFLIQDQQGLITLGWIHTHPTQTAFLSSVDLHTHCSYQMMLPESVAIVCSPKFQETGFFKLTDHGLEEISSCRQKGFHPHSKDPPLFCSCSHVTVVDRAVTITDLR
In words: Inhibition of AMSH (unknown origin) using DiUbK63TAMRA as substrate by fluorescence assay.

Usually IC50 stands for the concentration at which inhibition is half-maximal. What is called inhibition is the change of the read-out against control, counted positive when it falls.

Calls of active or inactive are those of the source. The calls are words filed in the database; no cut-off is given here. A value given as a limit tells only on which side of the number the result lay.

Sequence of Histone deacetylase 1 (Q13547 whole entry): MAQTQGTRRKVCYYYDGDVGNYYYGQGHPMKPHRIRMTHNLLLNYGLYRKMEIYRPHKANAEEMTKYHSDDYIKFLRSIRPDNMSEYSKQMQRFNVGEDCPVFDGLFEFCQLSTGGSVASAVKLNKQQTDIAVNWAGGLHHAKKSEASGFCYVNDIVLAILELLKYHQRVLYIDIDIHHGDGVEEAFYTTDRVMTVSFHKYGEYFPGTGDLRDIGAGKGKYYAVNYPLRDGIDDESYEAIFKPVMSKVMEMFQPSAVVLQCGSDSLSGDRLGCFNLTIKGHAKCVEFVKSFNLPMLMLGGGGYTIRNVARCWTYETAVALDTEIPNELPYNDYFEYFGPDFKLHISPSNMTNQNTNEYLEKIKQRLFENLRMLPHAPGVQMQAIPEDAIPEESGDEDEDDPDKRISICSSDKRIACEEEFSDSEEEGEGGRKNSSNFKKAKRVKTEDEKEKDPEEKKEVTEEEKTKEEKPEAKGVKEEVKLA
T1 sequence (O00487 whole entry): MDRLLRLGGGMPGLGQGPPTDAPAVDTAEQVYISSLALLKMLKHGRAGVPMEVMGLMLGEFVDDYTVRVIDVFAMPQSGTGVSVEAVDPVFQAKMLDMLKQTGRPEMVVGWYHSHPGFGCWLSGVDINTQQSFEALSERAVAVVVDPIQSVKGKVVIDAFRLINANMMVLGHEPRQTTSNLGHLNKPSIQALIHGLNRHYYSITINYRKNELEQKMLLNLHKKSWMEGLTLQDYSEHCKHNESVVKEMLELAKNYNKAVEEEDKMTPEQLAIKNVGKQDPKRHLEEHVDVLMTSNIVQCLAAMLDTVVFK
Sequence of 72 kDa type IV collagenase (P08253 whole entry, the tested form may be a part): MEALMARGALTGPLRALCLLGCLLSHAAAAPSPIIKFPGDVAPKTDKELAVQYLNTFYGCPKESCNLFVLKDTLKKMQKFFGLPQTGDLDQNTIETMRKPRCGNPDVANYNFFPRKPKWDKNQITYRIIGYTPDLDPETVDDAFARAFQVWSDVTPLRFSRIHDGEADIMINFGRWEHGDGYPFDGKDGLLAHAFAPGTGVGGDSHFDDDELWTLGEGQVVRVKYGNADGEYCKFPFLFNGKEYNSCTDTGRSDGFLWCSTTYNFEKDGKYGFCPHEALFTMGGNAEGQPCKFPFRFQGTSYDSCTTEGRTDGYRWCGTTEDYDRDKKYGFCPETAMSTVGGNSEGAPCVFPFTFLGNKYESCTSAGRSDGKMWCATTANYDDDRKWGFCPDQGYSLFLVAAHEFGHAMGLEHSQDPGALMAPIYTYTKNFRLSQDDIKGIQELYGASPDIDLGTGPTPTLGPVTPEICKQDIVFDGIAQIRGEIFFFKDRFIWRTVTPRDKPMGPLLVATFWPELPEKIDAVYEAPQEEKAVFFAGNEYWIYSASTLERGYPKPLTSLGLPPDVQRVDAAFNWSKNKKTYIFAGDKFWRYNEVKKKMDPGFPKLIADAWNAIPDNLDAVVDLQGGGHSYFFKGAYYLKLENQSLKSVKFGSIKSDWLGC
Sequence of COP9 signalosome complex subunit 5 (Q92905 whole entry, one chain of several): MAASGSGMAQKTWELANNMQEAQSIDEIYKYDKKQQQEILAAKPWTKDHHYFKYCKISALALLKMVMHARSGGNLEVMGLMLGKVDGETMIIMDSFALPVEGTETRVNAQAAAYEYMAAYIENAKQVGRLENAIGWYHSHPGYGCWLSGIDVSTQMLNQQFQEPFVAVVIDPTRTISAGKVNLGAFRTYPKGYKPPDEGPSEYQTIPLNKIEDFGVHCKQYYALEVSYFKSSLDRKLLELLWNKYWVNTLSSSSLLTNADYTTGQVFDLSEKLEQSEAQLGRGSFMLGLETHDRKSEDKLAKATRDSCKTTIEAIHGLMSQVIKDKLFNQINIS
Sequence of Lys-63-specific deubiquitinase BRCC36 (Homo sapiens) (P46736 whole entry): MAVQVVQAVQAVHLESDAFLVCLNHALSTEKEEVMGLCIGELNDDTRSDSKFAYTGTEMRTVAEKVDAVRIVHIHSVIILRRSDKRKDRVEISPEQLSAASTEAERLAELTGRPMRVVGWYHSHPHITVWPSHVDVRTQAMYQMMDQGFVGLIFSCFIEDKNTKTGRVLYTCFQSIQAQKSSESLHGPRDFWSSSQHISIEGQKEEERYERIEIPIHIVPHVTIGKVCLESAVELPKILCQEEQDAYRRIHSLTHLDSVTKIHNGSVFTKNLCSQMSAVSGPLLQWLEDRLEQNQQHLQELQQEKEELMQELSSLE
Description for HCT-116: Antiproliferative activity against human HCT116 cells after 72 hrs by Cell Titer-Glo assay

As for `O=C(NCCc1nccs1)c1cnc2c(SSc3cccc4cc(C(=O)NCCc5nccs5)cnc34)cccc2c1`, the results for the IC50 in the data set with A549 and in the data set on HEK-293T were 3.8 µM and 2.1 µM, respectively. Further, the solubility entry in data set [1] is “Soluble”.
With `Sc1cccc2cccnc12`, the IC50 on Histone deacetylase 1 was greater than 200 µM; with HCT-116 it was 1.6 µM; in data set [3], greater than 200 µM; in data set [4] it was greater than 200 µM; in data set [6], greater than 200 µM; in [7] it was 10.3 µM. In addition, the results for the IC50 (against Carbonic anhydrase 2; in data set [8]) were greater than 200 µM and 2.5 to 2.8 µM, respectively. Further, the inhibition in [2] worked out at 100%. For the same compound, in data set [5], the inhibition result is “Active”.
`O=C(Nc1nccs1)c1cnc2c(SSc3cccc4cc(C(=O)Nc5nccs5)cnc34)cccc2c1`: the IC50 with A549 stood at 5.8 µM; on STAM-binding protein it was 4.7 µM; with HEK-293T, 6.4 µM; in data set [7] it was 20 µM. Further, the solubility entry in [1] is reported as “Soluble”.
With `Cc1ccc(S)c2ncccc12`, the IC50 is greater than 200 µM on Histone deacetylase 1; 3.4 µM with HCT-116; greater than 200 µM in [3]; greater than 200 µM in [4]; greater than 200 µM in data set [6]; 2.9 µM in data set [7]. The IC50 at Carbonic anhydrase 2 was greater than 200 µM; in data set [8], 2.5 µM.
`CC(C)C[C@H](NC(=O)[C@H](Cc1ccccc1)NC(=O)c1cnccn1)B(O)O` [BORTEZOMIB]: the IC50 was found to be 0.092 µM in the data set with A549 and 0.012 µM in the data set with HEK-293T.
As for `Cc1cc(S)c2ncccc2c1`, the IC50 on Histone deacetylase 1 was greater than 50 µM; in [3] it was greater than 50 µM; in data set [4] it was greater than 200 µM; in data set [6] it was greater than 200 µM; against Carbonic anhydrase 2, greater than 100 µM; in [8], 0.9 µM.
As for `Cc1cnc2c(S)cccc2c1`, the IC50 at Histone deacetylase 1 is greater than 50 µM; in the data set with HCT-116 it was 2.6 µM; in data set [3] it was greater than 200 µM; in [4], greater than 200 µM; in data set [6], greater than 200 µM; in data set [7] it was 7.1 µM. The IC50 on Carbonic anhydrase 2 was greater than 40 µM; in data set [8], 1.6 µM.
As to `Cc1ccnc2c(S)cccc12`, the IC50 was greater than 200 µM on Histone deacetylase 1; greater than 10 µM in the data set on HCT-116; greater than 200 µM in [3]; greater than 200 µM in data set [4]; greater than 200 µM in [6]; 25.1 µM in data set [7]. The IC50 against Carbonic anhydrase 2 is greater than 200 µM; in [8], 5.7 µM.
